From publication PMC10872856 (The Prostate, 2023)

Biological target: T1, N-myristoyltransferase 1 (NMT1) (Homo sapiens, UniProt P30419)
T1 sequence (P30419 1-496): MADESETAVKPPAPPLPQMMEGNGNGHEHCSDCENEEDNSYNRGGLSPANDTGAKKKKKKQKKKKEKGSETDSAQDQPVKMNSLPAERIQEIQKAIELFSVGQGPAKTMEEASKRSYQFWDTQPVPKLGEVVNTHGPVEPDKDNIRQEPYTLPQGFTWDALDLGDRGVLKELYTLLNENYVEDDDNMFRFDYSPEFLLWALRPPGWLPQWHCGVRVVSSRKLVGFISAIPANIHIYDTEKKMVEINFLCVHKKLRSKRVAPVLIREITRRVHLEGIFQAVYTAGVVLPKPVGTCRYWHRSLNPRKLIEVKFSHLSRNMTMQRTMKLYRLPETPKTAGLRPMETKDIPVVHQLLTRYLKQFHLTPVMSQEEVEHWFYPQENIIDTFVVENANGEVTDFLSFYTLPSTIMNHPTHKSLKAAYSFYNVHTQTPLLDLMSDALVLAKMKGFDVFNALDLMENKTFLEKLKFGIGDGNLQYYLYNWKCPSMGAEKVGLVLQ
Test: fluorogenic CoA-release enzyme assay
Type: biochemical

IC50: 2300 nM
SMILES: CCCCCCCCCCCCCCN[C@H](CO)[C@H](O)c1ccc([N+](=O)[O-])cc1 [LCL204, (1R,2R)-LCL204]
